Test results: paper PMC10051705, “Leishmanicidal Activity of Guanidine Derivatives against Leishmania infantum” (Tropical Medicine and Infectious Disease, 2023)
Marks after values point to notes of the source that are not given here.

Legend:
[1] = test system: L. infantum promastigotes; assay: promastigote growth inhibition assay (MTT); format: cell-based; conditions: Leishmania infantum, 72 h, 26 °C
Experimental: The promastigote forms of Leishmania (Leishmania) infantum [IOC/L0579(MHOM/BR/1974/PP75)] were cultured in Schneider’s medium, pH 7.0, supplemented with 20% heat-inactivated fetal bovine serum (FBS), 2% male human urine, 100 U/mL of penicillin, and 100 mg/L of streptomycin, and the parasites were maintained at 26 °C. The procedure to obtain the extracellular axenic amastigote form of L. infantum was based on methods previously described that were modified using a Schneider medium readjusted to pH 5.5 at 37 °C. The culture of promastigote forms in the stationary phase was centrifuged, and the medium of these cells was replaced and differentiated into axenic amastigotes by temperature and medium pH changes. Parasites were maintained in culture for no more than 20 passages.
The promastigote growth inhibition assay was performed as previously described. Promastigotes were harvested during the exponential growth phase. They were incubated in the presence and absence of several concentrations of LQOFG-2, LQOFG-6, LQOFG-7 (500 to 7.8 µM), and AmB (10 to 0.078 µM) as the positive control. The plate was incubated at 26 °C for 72 h in a biological oxygen demand (B.O.D.) incubator using a Schneider’s medium (Schneider’s Insect Medium 24.5 g/L; L-glutamine 1.8 g/L; glucose 2 g/L and sodium bicarbonate 0.4 g/L; Sigma-Aldrich—St. Louis—USA) supplemented. The growth inhibition was evaluated using an MTT assay kit (Amresco, Solon, OH, USA) according to the manufacturer’s protocol. After 4 h of incubation, 10% sodium dodecyl sulfate was added to dissolve the formazan crystals. The absorbance (540 nm) was measured using a plate reader (Biosystems model ELx800; Curitiba, PR, Brazil). […] Three independent experiments we performed in triplicate.

[2] = test system: L. infantum axenic amastigotes; assay: axenic amastigote inhibition assay (MTT); format: cell-based; conditions: Leishmania infantum, 24 h; for EC50: 37 °C, pH 5.5, MTT; for inhibition at 31.2 µM: read-out: inhibition of axenic amastigotes compared to the control (untreated)
human red blood cells = assay: red blood cell lysis assay; format: cell-based; conditions: 1 h, 37 °C
Experimental: The hemolytic activities of guanidine compounds were measured using human red blood cells from healthy adults (n = 3) according to methods previously described. Briefly, 80 µL of a 5% erythrocyte/phosphate-buffered saline (PBS) suspension was mixed with 20 µL of LQOFG-2, LQOFG-6, LQOFG-7, (1000 to 7.8 µM), and AmB (100 to 0.78 µM). After incubation at 37 °C for 1 h, 200 µL of PBS (1.5 mM KH2PO4, 8.1 mM Na2HPO4, 136.9 mM NaCl, and 2.6 mM KCl, pH 7.2) was added to stop the hemolysis process, and the samples were centrifuged for 10 min at 1000× g. The supernatants were collected, and the extent of hemolysis was measured spectrophotometrically at 540 nm. The hemolysis percentage was determined as [(Abssam − Abscon)/(Abstot − Abscon) × 100], where Abssam is the absorbance of the sample, Abscon is the absorbance of the blank control (without drugs), and Abstot is the absorbance of total hemolysis (replacing the sample solution with an equal volume of ultrapure water (Direct-Q UV®, Guyancourt, France)).

[3] = in vitro cytotoxicity in PBMC (MTT); format: cell-based, human; conditions: both sexes, human, peripheral blood mononuclear cells (PBMCs), human PBMC, 24 h, MTT
Experimental: (§1) In vitro cytotoxicity was evaluated using peripheral blood mononuclear cells (PBMCs) collected from three healthy volunteers (2 males, mean age 33; and 1 person). PBMCs were separated by density gradient using Ficoll Paque PLUS (GE Healthcare, USA), pelleted by centrifugation (400× g for 40 min), and resuspended in RPMI 1640 medium, then supplemented with 10% fetal bovine serum and 1% antibiotic solution (penicillin 5000 Units/mL + streptomycin 5000 μg/mL). After 24 h of treatment, cell viability was evaluated by the modified colorimetric method based on the tetrazolium dye MTT (3-(4,5-dimethylthiazol-2-yl)-2,5- diphenyltetrazolium bromide). The MTT assay was used for in vitro cytotoxicity as previously described with the following modifications: cells were exposed to serially diluted concentrations of LQOFG-2, LQOFG-6, LQOFG-7 (1000 to 7.8 µM), and AmB (100 to 0.78 µM). The plates were kept at 37 °C for 24 h. MTT (5 mg/mL) was added and incubated for 4 h at 37 °C, after which the plates were centrifuged, the supernatant was discarded, and DMSO was added, leaving the plates under stirring to solubilize the formazan salts. Absorbance was measured at 540 nm using a plate reader (ELx800; Curitiba, PR, Brazil). The mean percentage of viable cells was calculated relative to the untreated control.

[4] = test system: peripheral blood mononuclear cells (PBMCs); assay: in vitro cytotoxicity in PBMC (MTT); format: cell-based, human; conditions: CC50 PBMC / EC50 axenic amastigotes
Experimental: as §1

[5] = test system: L. infantum promastigotes; assay: apoptosis/necrosis profiling, annexin V/PI staining, promastigotes; format: cell-based, Leishmania infantum
Experimental: (§2) To evaluate both apoptosis and necrosis, promastigote forms of L. infantum in the log phase of growth were incubated at several concentrations based on the IC50 values of LQOFG-2 (6.35; 12.7, 25.4, and 50.8 µM) LQOFG-6 (12.2, 24.4, 48.8 and 97.6 µM), and LQOFG-7 (11.65, 23.3, 46.6 and 93.2 µM), and AmB (1.5 and 6 µM) was used as the positive control. The plates were incubated for 24 h at 26 °C ± 1 °C in a B.O.D. incubator. After incubation, the promastigotes were washed three times in cold PBS, resuspended in binding buffer (10-mM HEPES, 140-mM NaCl, and 2.5-mM CaCl2, pH 7.4), and stained using a FITC Annexin V/Dead Cell Apoptosis Kit (BD Biosciences, San Jose, CA, USA) according to the manufacturer’s instructions. The stained cells were diluted and suspended in an Annexin V binding buffer (BD Biosciences, San Jose, CA, USA). Annexin V-FITC/propidium iodide (PI)-stained cells were analyzed using a BD FACSCanto II flow cytometer (BD Biosciences, San Jose, CA, USA). The raw data were analyzed using FlowJo 10.0.7 software (TreeStar Inc., Ashland, OR, USA).

[6] = test system: L. infantum axenic amastigotes; assay: apoptosis/necrosis profiling, annexin V/PI staining, axenic amastigotes; format: cell-based, Leishmania infantum
Experimental: as §2
To evaluate both apoptosis and necrosis of the amastigote-like forms of L. infantum, the protocol was followed. In each well, amastigotes were treated with the guanidine compounds and controls.

Structure (SMILES)	IC50 [1]	EC50 [2]	inhibition at 31.2 µM [2]	HC50, toxicity to red blood cells (human red blood cells)	CC50 at 24 h [3]	SI (CC50/EC50) [4]	% cells, Early Apoptosis (AV+, PI−) ([5]; 0.5× IC50, 24 h)	% cells, Late Apoptosis (AV+, PI+) ([5]; 0.5× IC50, 24 h)	% cells, Necrosis (AV−, PI+) ([5]; 0.5× IC50, 24 h)	% cells, Early Apoptosis (AV+, PI−) ([5]; 1× IC50, 24 h)	% cells, Late Apoptosis (AV+, PI+) ([5]; 1× IC50, 24 h)	% cells, Necrosis (AV−, PI+) ([5]; 1× IC50, 24 h)	% cells, Early Apoptosis (AV+, PI−) ([5]; 2× IC50, 24 h)	% cells, Late Apoptosis (AV+, PI+) ([5]; 2× IC50, 24 h)	% cells, Early Apoptosis (AV+, PI−) ([5]; 4× IC50, 24 h)	% cells, Late Apoptosis (AV+, PI+) ([5]; 4× IC50, 24 h)	% cells, Early Apoptosis (AV+, PI−) ([6]; 0.5 × EC50, 24 h)	% cells, Late Apoptosis (AV+, PI+) ([6]; 0.5 × EC50, 24 h)	% cells, Early Apoptosis (AV+, PI−) ([6]; 1 × EC50, 24 h)	% cells, Late Apoptosis (AV+, PI+) ([6]; 1 × EC50, 24 h)	also measured
CC(C)(C)c1ccc(N/C(=N\C(=O)c2ccccc2)NCc2ccccc2)cc1 [LQOFG-6, (Z)-N-((benzylamine)((4-(tert-butyl)phenyl)amino)methylene)benzamide]	24.4 ± 0.76 µM	21.1 ± 1.13 µM	59.9%	>1000 µM	> 1000 µM	>47.4	0.65 ± 0.19%	0.18 ± 0.01%	0.85 ± 0.09%	0.46 ± 0.13%	0.20 ± 0.03%	1.47 ± 0.21%	0.51 ± 0.08%	0.32 ± 0.06%	0.91 ± 0.34%	0.20 ± 0.03%	3.62 ± 0.39%	17.10 ± 0.80%	4.05 ± 0.22%	20.00 ± 1.74%	% cells, Necrosis (AV−, PI+) ([6]; 1 × EC50, 24 h): 6.57 ± 1.20%; % cells, Early Apoptosis (AV+, PI−) ([6]; 2 × EC50, 24 h): 5.72 ± 0.20 ^a %; % cells, Late Apoptosis (AV+, PI+) ([6]; 2 × EC50, 24 h): 25.50 ± 0.80%; % cells, Necrosis (AV−, PI+) ([6]; 2 × EC50, 24 h): 7.15 ± 0.21%; % cells, Early Apoptosis (AV+, PI−) ([6]; 4 × EC50, 24 h): 9.06 ± 0.70 ^d %; % cells, Late Apoptosis (AV+, PI+) ([6]; 4 × EC50, 24 h): 45.47 ± 1.30 ^d %; % cells, Necrosis (AV−, PI+) ([6]; 4 × EC50, 24 h): 8.14 ± 0.78%
O=C(/N=C(/NCc1ccccc1)Nc1ccc(Br)cc1)c1ccccc1 [LQOFG-2, (Z)-N-((benzylamine)((4-bromophenyl)amino)methylene)benzamide]	12.7 ± 0.25 µM	26.1 ± 1.22 µM	57.7%	>1000 µM	313 ± 3.23 µM	12.00	0.27± 0.09%	0.55 ± 0.04%	1.69 ± 0.28%	0.12 ± 0.02%	0.41 ± 0.14%	2.07 ± 0.23%	0.35 ± 0.01%	0.78 ± 0.15%	0.34 ± 0.09%	0.63 ± 0.12%	5.68 ± 0.29 ^a %	31.43 ± 0.03 ^b %	8.13 ± 0.84 ^d %	33.23 ± 0.73 ^c %	% cells, Necrosis (AV−, PI+) ([5]; 2× IC50, 24 h): 1.52 ± 0.24%; % cells, Necrosis (AV−, PI+) ([5]; 4× IC50, 24 h): 1.79 ± 0.59%; % cells, Necrosis (AV−, PI+) ([6]; 0.5 × EC50, 24 h): 13.20 ± 1.62%; % cells, Necrosis (AV−, PI+) ([6]; 1 × EC50, 24 h): 11.97 ± 0.66%; % cells, Early Apoptosis (AV+, PI−) ([6]; 2 × EC50, 24 h): 7.68 ± 0.39 ^d %; % cells, Late Apoptosis (AV+, PI+) ([6]; 2 × EC50, 24 h): 56.27 ± 1.51 ^d %; % cells, Necrosis (AV−, PI+) ([6]; 2 × EC50, 24 h): 15.93 ± 1.02%; % cells, Early Apoptosis (AV+, PI−) ([6]; 4 × EC50, 24 h): 7.55 ± 1.18 ^d %; % cells, Late Apoptosis (AV+, PI+) ([6]; 4 × EC50, 24 h): 67.50 ± 2.05 ^d %; % cells, Necrosis (AV−, PI+) ([6]; 4 × EC50, 24 h): 13.80 ± 1.47%
